# According to paper PMC11546339, “Conformational Plasticity Enhances the Brain Penetration of a Metabolically Stable, Dual-Functional Opioid-Peptide CycloAnt” (International Journal of Molecular Sciences, 2024):
# Like-named read-outs stand apart in the source and are kept apart here. Where a SMILES comes first, the peptide text is derived from it. Bridges are numbered along the chain shown (N, C = ends). [ ]: non-standard residue; d: D form. 2Abz = Nc1ccccc1C(=O)O; Dap = NC[C@H](N)C(=O)O
# Assays:
# human KOR = molecular target: T1, human KOR (Homo sapiens, UniProt P41145); test: Opioid receptor radioligand binding assay ([3H]diprenorphine), KOR
# T1 construct: expressed in transfected cells
# Method: CycloAnt is a lariat peptide that acts in vivo as a bifunctional MOR agonist and DOR antagonist, which was confirmed in our previous study using opioid receptor individually knock-out (OP KO) mice. In the current study, the binding affinities of CycloAnt to the three opioid receptors are determined using cell-based radioligand opioid receptor binding assays. […] At the KOR, CycloAnt at 1 μM inhibits 6% and at 10 μM inhibits 26% of [^3H]diprenorphine binding.
# Opioid receptor radioligand binding assay. Membranes of CHO cells stably expressing the rat MOR, mouse DOR, or human KOR were used in the experiments. [^3H]diprenorphine (PerkinElmer, Waltham, MA, at the time of experiment calculated to have specific activity 35 Ci/mmol) was used as the radioligand for the MOR, DOR, and KOR. Competition inhibition of [^3H]diprenorphine (0.3–0.4 nM) binding to the MOR or DOR was conducted in 50 mM Tris-HCl buffer (pH 7.4) with an adequate number of cell membranes for each receptor and […] of CycloAnt. […] Binding reactions were terminated by rapid filtration under vacuum over GF/B filters presoaked in 0.1% polyethyleneimine, and the bound radioactivity was counted by liquid scintillation counting. […] Binding data were analyzed using GraphPad Prism software (version 10.2.3) and IC50 values (the concentration necessary to inhibit 50 percent of radioligand binding) and Ki values were calculated. […]
# [1] = Pharmacokinetic study in mice (plasma and brain); assay type: in vivo; details: male, C57BL/6, mouse, ip, 3 mg/kg i.p.
# Method: To evaluate the amount of CycloAnt in mouse brain, we performed a pharmacokinetic experiment in mice. Mice were given CycloAnt at 3 mg/kg i.p.; blood was collected at 0, 15, 30, and 60 min post-injection. Immediately after the blood was collected, the mouse was intracardially perfused through the left ventricle with 20 mL PBS. The whole brain was isolated and homogenized. The blood and brain samples were processed by protein precipitation and centrifugation. The supernatants of the blood and brain samples were collected and analyzed by LC-MS/MS.
# Pharmacokinetic study. Standard curve. Following euthanasia, mouse blood was collected in a heparin anticoagulation tube and the whole brain was isolated. For determination of the standard curve in mouse blood, 300 μL of blood was spiked with 0, 10, 100, and 1000 ng of CycloAnt, respectively, followed by adding 600 μL of ice-cold acetonitrile containing the internal standard (IS, Tyr-[D-Lys-Phe-Tyr-Gly]) at 200 ng/mL. The blood samples were thoroughly mixed and centrifuged at 10,000 rpm at 4 °C for 10 min. An aliquot of 600 μL of supernatant from each sample was collected and dried under vacuum, followed by reconstitution of the dried blood sample in 100 μL 20% acetonitrile. The reconstituted sample was centrifuged at 13,000 rpm, 4 °C for 5 min to remove the lipid content. The supernatant was collected for LC-MS/MS analysis. For mouse brain, the brain was homogenized with 250 μL of PBS at 0 °C, followed by adding 1 mL of ice-cold acetonitrile containing the IS. The brain sample was then spiked with 0, 10, 100, and 1000 ng of CycloAnt, respectively, and thoroughly mixed and centrifuged at 10,000 rpm, 4 °C for 10 min. An aliquot of 1000 μL of supernatant was collected and dried under vacuum, followed by adding 100 μL 20% acetonitrile to reconstitute the dried brain sample. The reconstituted sample was mixed and centrifugating at 13,000 rpm, 4 °C for 5 min to remove the lipid content. The supernatant was collected and analyzed by LC-MS/MS.
# The peak areas of CycloAnt and IS were recorded; the relative measured concentration of CycloAnt was calculated using the ratio of CycloAnt peak area vs. IS peak area. A standard concentration curve (Figure S8) was then generated for CycloAnt in the matrix of blood and brain, respectively.
# Pharmacokinetics. Eight-week-old male C57BL/6 mice (Jackson Laboratories, Bar Harbor, ME, USA) were used for pharmacokinetic studies. CycloAnt was given to mice (n = 2) i.p. at a dose of 3 mg/kg. At 15, 30, and 60 min post-administration, mouse blood was collected in a heparin anticoagulation tube. After blood collection, the mouse was intracardially perfused through the left ventricle with 20 mL PBS, followed by isolation of the whole brain. To process the blood sample, 300 μL blood was mixed with 600 μL of ice-cold acetonitrile containing the IS at 200 ng/mL, followed by centrifugation at 10,000 rpm, 4 °C for 10 min. To process the brain sample, 250 μL of ice-cold PBS was added to the isolated brain and homogenized at 0 °C, followed by mixing with 1 mL of ice-cold acetonitrile containing the IS. The brain sample was then centrifuged at 10,000 rpm, 4 °C for 10 min. The supernatants were collected from the blood sample (600 μL) and the brain sample (1 mL), respectively, and dried under vacuum. The blood and brain samples were reconstituted in 100 μL of 20% acetonitrile. The samples were then centrifuged at 13,000 rpm, 4 °C for 5 min to remove the lipid content. The supernatants were collected from the blood and brain samples and analyzed by LC-MS/MS.
# T1 sequence (P41145 whole entry): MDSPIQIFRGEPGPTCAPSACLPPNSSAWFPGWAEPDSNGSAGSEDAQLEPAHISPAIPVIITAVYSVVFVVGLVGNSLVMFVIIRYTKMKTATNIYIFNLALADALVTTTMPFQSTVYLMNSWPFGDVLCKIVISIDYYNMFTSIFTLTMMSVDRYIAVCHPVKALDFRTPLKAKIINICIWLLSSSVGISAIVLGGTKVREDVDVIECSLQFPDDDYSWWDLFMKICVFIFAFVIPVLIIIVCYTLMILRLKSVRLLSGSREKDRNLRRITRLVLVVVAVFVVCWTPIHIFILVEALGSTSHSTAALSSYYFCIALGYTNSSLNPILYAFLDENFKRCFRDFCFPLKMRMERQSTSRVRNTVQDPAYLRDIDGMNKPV
smiles,measurement,setting,value
C[C@@H](O)[C@@H]1NC(=O)[C@H](CNC(=O)c2ccccc2N)NC(=O)[C@H](NC(=O)[C@@H](N)Cc2ccc(O)cc2)CCCCNC(=O)CNC1=O [CycloAnt] (H-Y[dK][Dap](2Abz)TG; lactam 2-C),inhibition at 1 µM,human KOR; CycloAnt at 1 μM,6%
same,inhibition at 10 µM,human KOR; CycloAnt at 10 μM,26%
same,Tmax,"[1]; brain, read-out: time of maximum concentration in brain (converted)",15 min
same,Cmax,"[1]; assuming density of brain tissue 1 g/mL, read-out: maximum concentration in brain (Cmax,br)",70 nM
same,Cmax,"[1]; perfused brain, read-out: maximum concentration in brain (Cmax,br)",46 ng/g
same,AUC,"[1]; plasma, 0-60 min, read-out: AUCbld (plasma) (converted)",173 ng·h/mL
same,Cmax,"[1]; plasma, read-out: maximum concentration in mouse plasma (Cmax,pl)",411 ng/mL
same,Tmax,"[1]; whole blood, read-out: time of maximum concentration in blood (converted)",15 min
